According to ChEMBL document CHEMBL5380842, “Discovery of a Potent and Selective CCR8 Small Molecular Antagonist IPG7236 for the Treatment of Cancer” (J Med Chem, 2023):

Legend:
[1] = Oral bioavailability in Sprague-Dawley rat at 50 mg/kg; assay type: ADME, organism-based; conditions: in vivo
Cytochrome P450 2C8 = target: T1, Cytochrome P450 2C8 (Homo sapiens, UniProt P10632); experiment: Inhibition of CYP2C8 (unknown origin); assay type: ADME
T1 sequence (P10632 whole entry): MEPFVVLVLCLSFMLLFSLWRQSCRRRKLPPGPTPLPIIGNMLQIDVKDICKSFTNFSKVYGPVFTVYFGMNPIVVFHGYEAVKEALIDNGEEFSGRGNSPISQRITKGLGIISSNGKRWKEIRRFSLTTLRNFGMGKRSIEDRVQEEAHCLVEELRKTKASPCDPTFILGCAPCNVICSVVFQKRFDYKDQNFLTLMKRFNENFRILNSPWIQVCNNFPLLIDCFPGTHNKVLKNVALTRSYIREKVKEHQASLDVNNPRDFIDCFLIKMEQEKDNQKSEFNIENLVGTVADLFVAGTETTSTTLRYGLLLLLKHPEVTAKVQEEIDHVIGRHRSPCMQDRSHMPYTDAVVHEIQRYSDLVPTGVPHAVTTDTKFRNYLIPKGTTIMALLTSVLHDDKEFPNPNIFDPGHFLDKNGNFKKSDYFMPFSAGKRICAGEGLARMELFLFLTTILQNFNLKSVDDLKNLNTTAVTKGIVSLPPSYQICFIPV

[2] = Tmax in ICR mouse at 50 mg/kg, po; assay type: ADME, organism-based; conditions: in vivo
Cytochrome P450 2C19 = Cytochrome P450 2C19 (Homo sapiens, UniProt P33261); experiment: Inhibition of CYP2C19 (unknown origin); assay type: ADME
[3] = Clearance in Beagle dog at 3 mg/kg, iv; assay type: ADME, organism-based, Canis lupus familiaris; conditions: in vivo
Cytochrome P450 2B6 = target: T2, Cytochrome P450 2B6 (Homo sapiens, UniProt P20813); experiment: Inhibition of CYP2B6 (unknown origin); assay type: ADME
T2 sequence (P20813 whole entry): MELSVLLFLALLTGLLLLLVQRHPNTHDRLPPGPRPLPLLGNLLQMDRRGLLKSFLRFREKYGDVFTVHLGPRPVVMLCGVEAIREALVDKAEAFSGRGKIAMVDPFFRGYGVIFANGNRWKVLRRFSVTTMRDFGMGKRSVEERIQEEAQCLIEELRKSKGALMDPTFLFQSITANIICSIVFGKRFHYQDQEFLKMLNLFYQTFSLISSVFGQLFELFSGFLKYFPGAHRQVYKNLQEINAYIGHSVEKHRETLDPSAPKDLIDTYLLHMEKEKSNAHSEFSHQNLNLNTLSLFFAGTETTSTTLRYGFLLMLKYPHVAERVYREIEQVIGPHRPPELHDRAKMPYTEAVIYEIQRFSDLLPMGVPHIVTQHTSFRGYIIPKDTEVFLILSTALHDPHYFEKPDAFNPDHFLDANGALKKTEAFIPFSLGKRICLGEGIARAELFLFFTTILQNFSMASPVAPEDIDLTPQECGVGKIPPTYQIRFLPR

[4] = Tmax in Cynomolgous monkey at 50 mg/kg, po; assay type: ADME, organism-based, Macaca fascicularis; conditions: cynomolgus monkey, in vivo
[5] = Unbound fraction in human plasma; assay type: ADME, cell-free
MDA-MB-231 = experiment: Antitumor activity against human MDA-MB-231 cells xenografted in humanized NCG mouse assessed as […] in tumor-infiltrating CD8+ T cells administered intragastrically twice everyday; assay type: functional, cell-based; conditions: dose 2-50 mg/kg, route ig

Cytochrome P450 2C19, sequence (P33261 whole entry): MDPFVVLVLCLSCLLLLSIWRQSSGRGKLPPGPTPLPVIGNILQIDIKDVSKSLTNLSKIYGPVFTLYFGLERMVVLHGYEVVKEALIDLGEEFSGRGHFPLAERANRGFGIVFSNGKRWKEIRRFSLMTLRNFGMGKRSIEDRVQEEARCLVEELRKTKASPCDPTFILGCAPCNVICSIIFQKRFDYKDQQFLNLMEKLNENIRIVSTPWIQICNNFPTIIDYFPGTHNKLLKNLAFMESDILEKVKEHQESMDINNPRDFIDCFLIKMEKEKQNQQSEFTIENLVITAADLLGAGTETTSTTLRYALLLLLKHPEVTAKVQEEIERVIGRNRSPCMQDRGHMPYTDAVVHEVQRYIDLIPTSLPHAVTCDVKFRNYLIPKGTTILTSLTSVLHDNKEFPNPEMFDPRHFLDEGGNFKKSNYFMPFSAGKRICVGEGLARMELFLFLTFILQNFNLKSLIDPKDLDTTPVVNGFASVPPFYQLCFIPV

bioavailability [1]: 66%
IC50 (Cytochrome P450 2C8): > 10 µM
Tmax [2]: 0.5 h
IC50 (Cytochrome P450 2C19): > 10 µM
clearance [3]: 14.2 mL/min/kg
IC50 (Cytochrome P450 2B6): > 10 µM
Tmax [4]: 2.3 h
fraction unbound [5]: 0.358
Structure (SMILES): Cc1cc(S(=O)(=O)N[C@H](C)C2CCN(C)CC2)ccc1NC(=O)c1ccccc1C
Activity (MDA-MB-231): Dose-Dependent Effect
